Where two headings read alike, the source gives them in different places.
Assays:
[1] = log P determination by HPLC on reversed-phase columns (C 18), analogously to OECD Guideline 117; assay type: physicochemical; settings: for logP (HCOOH): LC-MS in the acidic range, pH 2.7, 0.1% aqueous formic acid / acetonitrile; for logP (HCOOH) / logP (neutral): HPLC reversed-phase C 18; for logP (neutral): LC-MS in the neutral range, pH 7.8, 0.001 molar aqueous ammonium hydrogencarbonate / acetonitrile; for chromatographic logP: reversed-phase C18 HPLC column
How it was run: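 Reversed-phase C18 HPLC per OECD 117 with LC-MS detection and a linear 10→95% acetonitrile gradient. Acidic log P run at pH 2.7 with 0.1% formic acid in both eluents. Neutral log P run at pH 7.8 with 0.001 M aqueous ammonium hydrogencarbonate.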

[2] = test system: greenhouse red spider mite (Tetranychus urticae); assay: Tetranychus urticae spray test, OP-resistant (TETRUR), bean leaf disks; assay type: in vivo; settings: bean leaf disks, after 6 days
Protocol: Tetranychus urticae—Spray Test, OP-Resistant (TETRUR)
Solvent: 78.0 parts by weight of acetone
• 1.5 parts by weight of dimethylformamide Emulsifier: alkylaryl polyglycol ether
To produce a suitable preparation of active compound, 1 part by weight of active compound is dissolved using the stated parts by weight of solvent and made up with water containing an emulsifier concentration of 1000 ppm until the desired concentration is attained. To produce further test concentrations, the preparation is diluted with emulsifier-containing water.
disks of bean leaves (Phaseolus vulgaris) infested with all stages of the greenhouse red spider mite (Tetranychus urticae) are sprayed with an active compound preparation of the desired concentration.
After 6 days, the efficacy in % is determined. 100% means that all the spider mites have been killed; 0% means that none of the spider mites have been killed.

[3] = acidic range, pH 2.7, 0.1% aqueous formic acid and acetonitrile, read-out: log P[a] / log P(HCOOH)
[4] = neutral range, pH 7.8, 0.001 molar aqueous ammonium hydrogencarbonate and acetonitrile, read-out: log P[b] / log P(neutral)
[5] = Tetranychus urticae, foliar, 144 h, application rate 500 g/ha, read-out: efficacy in %

C=CCn1c(=O)n(-c2ccc(C)c(SCC(F)(F)F)c2)n(-c2ccc(C)c(SCC(F)(F)F)c2)c1=O [Example 79]
logP (HCOOH) [1]: 4.86 | logP (neutral) [1]: 4.67 | efficacy in % ([2]; application rate 100 g/ha): 90%

Cc1cc(F)c(N2C(=O)C(=O)N(CC(F)F)C2=O)cc1SCC(F)(F)F [Example 101, 1-(2,2-Difluoroethyl)-3-[2-fluoro-4-methyl-5-[(2,2,2-trifluoroethyl)sulfanyl]phenyl]imidazolidine-2,4,5-trione]
chromatographic logP [1, 3]: 3.22 | chromatographic logP [1, 4]: 1.73 | pest or weed control at 500 g/ha [2, 5]: 100%

Cc1cc(F)c(-n2c(=O)n(C3CC3)c(=O)n2C(C)C)cc1[S+]([O-])CC(F)(F)F (stereo not drawn) [Example 64]
logP (HCOOH) [1]: 2.51 | logP (neutral) [1]: 2.45 | efficacy in % ([2]; application rate 500 g/ha): 90%

C=CCn1c(=O)n(CC(F)(F)F)n(-c2cc(SCC(F)(F)F)c(C)cc2F)c1=O [Example 154]
logP (HCOOH) [1]: 3.62 | logP (neutral) [1]: 3.64 | efficacy in % ([2]; application rate 500 g/ha): 100%

C=CCN1CC(=O)N(c2cc([S+]([O-])CC(F)(F)F)c(C)cc2F)C1=O (racemic) [Example 201]
logP (HCOOH) [1]: 2.02 | logP (neutral) [1]: 1.99 | efficacy in % ([2]; application rate 500 g/ha): 100%

CCn1c(=O)[nH]n(-c2cc(SCC(F)(F)F)c(C)cc2F)c1=O [Example 85]
logP (HCOOH) [1]: 2.43 | logP (neutral) [1]: 0.86 | efficacy in % ([2]; application rate 500 g/ha): 90%

Cc1cc(F)c(-n2c(=O)n(C(C)C)c(=O)n2C(C)(C)C)cc1SCC(F)(F)F [Example 143]
logP (neutral) [1]: 4.56 | efficacy in % ([2]; application rate 500 g/ha): 100%

Cc1cc(F)c(N2C(=O)N(C)C(C)(C)C2=O)cc1SCC(F)(F)F [Example 18, 3-{2-Fluoro-4-methyl-5-[(2,2,2-trifluoroethyl)sulfanyl]phenyl}-1,5,5-trimethylimidazolidine-2,4-dione]
chromatographic logP [1, 3]: 2.96 | chromatographic logP [1, 4]: 2.92 | pest or weed control at 500 g/ha [2, 5]: 100%

Cc1cc(F)c(N2C(=O)OC(C)(C)C2=O)cc1[S+]([O-])CC(F)(F)F (stereo not drawn) [Example 110, 3-[2-Fluoro-4-methyl-5-(2,2,2-trifluoroethylsulfinyl)phenyl]-5,5-dimethyloxazolidine-2,4-dione]
chromatographic logP [1, 3]: 2.38 | pest or weed control at 100 g/ha ([2]; Tetranychus urticae, foliar, 144 h, application rate 100 g/ha, read-out: efficacy in %): 100%

Cc1cc(F)c(N2CC(C)OC2=O)cc1[S+]([O-])CC(F)(F)F (stereo not drawn) [Example 109, 3-[2-Fluoro-4-methyl-5-(2,2,2-trifluoroethylsulfinyl)phenyl]-5-methyloxazolidin-2-one]
chromatographic logP [1, 3]: 1.93 | chromatographic logP [1, 4]: 1.89 | pest or weed control at 500 g/ha [2, 5]: 100%

Cc1cc(F)c(N2C(=O)N(C)C(=O)C2C)cc1SCC(F)(F)F (stereo not drawn) [Example 212]
logP (HCOOH) [1]: 2.92 | efficacy in % ([2]; application rate 500 g/ha): 90%

Cc1cc(F)c(N2CCCC2=NCC(F)(F)F)cc1SCC(F)(F)F [Example 6, 2,2,2-Trifluoro-N-(1-[2-fluoro-4-methyl-5-[(2,2,2-trifluoroethyl)sulfanyl]phenyl]pyrrolidin-2-ylidene)ethanamine]
chromatographic logP [1, 3]: 1.68 | chromatographic logP [1, 4]: 4.24 | pest or weed control at 500 g/ha [2, 5]: 90%

Cc1cc(F)c(N2C(=O)CN(Cc3ccccc3)C2=O)cc1[S+]([O-])CC(F)(F)F (stereo not drawn) [Example 205]
logP (HCOOH) [1]: 2.60 | logP (neutral) [1]: 2.52 | efficacy in % ([2]; application rate 500 g/ha): 90%

CCn1c(=O)n(CC)n(-c2ccc(C)c([S+]([O-])CC(F)(F)F)c2)c1=O (stereo not drawn) [Example 138]
logP (HCOOH) [1]: 2.20 | logP (neutral) [1]: 2.19 | efficacy in % ([2]; application rate 500 g/ha): 90%

Cc1cc(F)c(N2C(=O)C(=O)N(CC(C)C)C2=S)cc1[S+]([O-])CC(F)(F)F (stereo not drawn) [Example 194]
logP (HCOOH) [1]: 3.56 | logP (neutral) [1]: 3.53 | efficacy in % ([2]; application rate 500 g/ha): 90%

Cc1cc(F)c(-n2c(=O)n(CC3CC3)c(=O)n2C)cc1[S+]([O-])CC(F)(F)F (stereo not drawn) [Example 169]
logP (HCOOH) [1]: 2.30 | logP (neutral) [1]: 2.33 | efficacy in % ([2]; application rate 100 g/ha): 90%

CCn1c(=O)n(C)c(=O)n1-c1cc(SCC(F)(F)F)c(C)cc1F [Example 97]
logP (HCOOH) [1]: 2.91 | logP (neutral) [1]: 2.83 | efficacy in % ([2]; application rate 500 g/ha): 100%

Cc1ccc(-n2c(=O)n(C)c(=O)n2-c2ccc(C)c(SCC(F)(F)F)c2)cc1SCC(F)(F)F [Example 56]
logP (HCOOH) [1]: 4.34 | logP (neutral) [1]: 4.05 | efficacy in % ([2]; application rate 500 g/ha): 90%

Cc1cc(F)c(N2C(=O)N(C3CC3)C(=O)C2C)cc1[S+]([O-])CC(F)(F)F (stereo not drawn) [Example 215]
logP (HCOOH) [1]: 2.15 | efficacy in % ([2]; application rate 500 g/ha): 100%

CCn1c(=O)n(C)c(=O)n1-c1cc([S+]([O-])CC(F)(F)F)c(C)cc1F (stereo not drawn) [Example 98]
logP (HCOOH) [1]: 1.93 | logP (neutral) [1]: 1.91 | efficacy in % ([2]; application rate 500 g/ha): 90%

COCCCn1c(=O)n(C)n(-c2cc([S+]([O-])CC(F)(F)F)c(C)cc2F)c1=O (stereo not drawn) [Example 170]
logP (HCOOH) [1]: 1.97 | logP (neutral) [1]: 1.98 | efficacy in % ([2]; application rate 500 g/ha): 90%

C=CCn1c(=O)n(-c2cc([S+]([O-])CC(F)(F)F)c(C)cc2F)c(=O)n1CC=C (racemic) [Example 120]
logP (HCOOH) [1]: 2.46 | efficacy in % ([2]; application rate 500 g/ha): 90%

Cn1c(=O)n(C2CC2)c(=O)n1-c1ccc(C(F)(F)F)c(SCC(F)(F)F)c1 [Example 53]
logP (HCOOH) [1]: 3.33 | logP (neutral) [1]: 3.23 | efficacy in % ([2]; application rate 500 g/ha): 100%

Cc1ccc(-n2c(=O)n(C)c(=O)n2C)cc1[S+]([O-])CC(F)(F)F (stereo not drawn) [Example 21, 1,4-Dimethyl-2-{4-methyl-3-[(2,2,2-trifluoroethyl)sulfinyl]phenyl}-1,2,4-triazolidine-3,5-dione]
chromatographic logP [1, 3]: 1.63 | chromatographic logP [1, 4]: 1.63 | pest or weed control at 500 g/ha [2, 5]: 100%

Cn1c(=O)n(C2CC2)c(=O)n1-c1cc([S+]([O-])CC(F)(F)F)c(Br)cc1F (stereo not drawn) [Example 72]
logP (HCOOH) [1]: 2.24 | logP (neutral) [1]: 2.18 | efficacy in % ([2]; application rate 500 g/ha): 90%

CCCn1c(=O)n(C)n(-c2cc(SCC(F)(F)F)c(C)cc2F)c1=O [Example 160]
logP (HCOOH) [1]: 3.28 | logP (neutral) [1]: 3.22 | efficacy in % ([2]; application rate 100 g/ha): 100%

Cc1cc(F)c(-n2c(=O)n(C3CC3)c(=O)n2C(C)C)cc1SCC(F)(F)F [Example 65]
logP (HCOOH) [1]: 3.59 | logP (neutral) [1]: 3.51 | efficacy in % ([2]; application rate 500 g/ha): 100%

Cc1cc(F)c(N2C(=O)C(C)(C)C(=O)N2Cc2ccccc2)cc1SCC(F)(F)F [Example 178]
logP (HCOOH) [1]: 3.80 | logP (neutral) [1]: 3.76 | efficacy in % ([2]; application rate 500 g/ha): 100%

Cc1cc(F)c(-n2c(=O)n(-c3ccccc3)c(=O)n2CC(F)(F)F)cc1SCC(F)(F)F [Example 155]
logP (HCOOH) [1]: 3.93 | logP (neutral) [1]: 3.90 | efficacy in % ([2]; application rate 500 g/ha): 90%

C=CCn1c(=O)n(C2CC2)c(=O)n1-c1cc([S+]([O-])CC(F)(F)F)c(C)cc1F (stereo not drawn) [Example 165]
logP (HCOOH) [1]: 2.32 | logP (neutral) [1]: 2.30 | efficacy in % ([2]; application rate 500 g/ha): 90%

Cc1ccc(-n2c(=O)n(C3CC3)c(=O)n2CC(C)C)cc1[S+]([O-])CC(F)(F)F (stereo not drawn) [Example 50]
logP (HCOOH) [1]: 3.58 | logP (neutral) [1]: 3.47 | efficacy in % ([2]; application rate 500 g/ha): 90%

Cc1cc(F)c(N2C(=O)N(C)C(=O)C2C)cc1[S+]([O-])CC(F)(F)F (stereo not drawn) [Example 213]
logP (HCOOH) [1]: 1.91 | efficacy in % ([2]; application rate 500 g/ha): 100%

Cc1cc(F)c(-n2c(=O)n(CC3CC3)c(=O)n2C)cc1SCC(F)(F)F [Example 161]
logP (HCOOH) [1]: 3.39 | logP (neutral) [1]: 3.34 | efficacy in % ([2]; application rate 500 g/ha): 100%

CCn1c(=O)n(CC(F)(F)F)n(-c2cc(SCC(F)(F)F)c(C)cc2F)c1=O [Example 145]
logP (HCOOH) [1]: 3.54 | logP (neutral) [1]: 3.49 | efficacy in % ([2]; application rate 500 g/ha): 100%

Cn1c(=O)n(C2CC2)c(=O)n1-c1ccc(Br)c(SCC(F)(F)F)c1 [Example 46]
logP (HCOOH) [1]: 3.11 | logP (neutral) [1]: 3.05 | efficacy in % ([2]; application rate 500 g/ha): 100%

Source: patent US9981928B2, “Aryl sulfide derivatives and aryl sulfoxide derivatives as acaricides and insecticides” (BAYER CROPSCIENCE AKTIENGESELLSCHAFT, priority 2013, dated 2018)
